Data published in US20220289732A1, “HETEROCYCLIC WDR5 INHIBITORS AS ANTI-CANCER COMPOUNDS” (NOVARTIS AG, priority 2019, published 2022).

Legend:
WDR5 = WDR5 (Homo sapiens, UniProt P61964); experiment: WDR5 HTRF binding assay; conditions: read-out: (a) WDR5 HTRF Pep Val v.1[Inhibitor/IC50]Qualified AC50
How it was run: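 6 nM WDR5 and 20 nM biotin-MLL1 WIN peptide (3762-3773) were incubated with compound (12-point, 3-fold dilutions) in pH 7.5 Hepes/NaCl/DTT buffer for 20 min at rt. Streptavidin-APC plus anti-His-Eu were then added for 1 hr, with HTRF read at 665/615. IC50 was fit from control-normalized activity; the counter assay used 15 nM biotin-PEG-His peptide.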

[1] = biological target: wild type MLL1 four-member complex (MLL1-4C) (Homo sapiens, UniProt P61964); experiment: MLL1 LC-MS assay (SAH production); assay type: biochemical; conditions: read-out: (b) MLL LCMS Peptide Val.v.1 Qualified AC50
How it was run: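 MLL1-4C (30 nM final) was preincubated 20 min with compound (3-fold dilutions, 8 or 12 points) and SAM in Tris-HCl pH 8.0 buffer. H3K4me0 peptide (histone H3[1-21]-biotin) was then added, giving final 2.5 μM SAM and 10 μM substrate, and reactions ran 120 min at rt. After TFA/d4-SAH quench, SAH was quantified by LC-MS/MS and IC50 fitted from control-normalised activity.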

MV4-11 cells = experiment: MV4-11 6-day cell growth CTG (CellTiter-Glo) assay; assay type: cell-based; conditions: Homo sapiens, MV4-11, 144 h, 6 days, read-out: (c) MLL/WDR5 cell proliferation assay//MLL/WDR5 proliferation MV4:11 Qualified AC50
How it was run: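 Exponentially growing MV4-11 AML cells (RPMI 1640, 10% FBS) seeded at 300 cells/well with 12-point 1:3 compound dilutions, top final concentration 50 μM. Viability read by CellTiter-Glo luminescence after 6 days at 37° C; % inhibition vs DMSO-only wells fitted to dose-response for IC50.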

Structure (SMILES)	IC50 (WDR5)	AC50 [1]	AC50 (MV4-11 cells)
CCOc1cc([C@H](C)N2CCc3c(cc(CCN4CC(F)C4)cc3-c3cn(C)c(=O)cc3C(F)(F)F)C2=O)ncc1C#N [Example 249]	10 to 1000 nM	10 to 1000 nM	10 to 1000 nM
CCOc1cc([C@H](C)N2CCc3c(cc(CCN(C)CCO)cc3-c3cc(C)ncc3C)C2=O)ncc1C#N [Example 250]	10 to 1000 nM	10 to 1000 nM	10 to 1000 nM
CCOc1cc([C@H](C)N2CCc3c(cc(CCN(C)CCF)cc3-c3cn(C)c(=O)cc3Cl)C2=O)ncc1C#N [Example 251]	10 to 1000 nM	10 to 1000 nM	10 to 1000 nM
CCOc1cc([C@H](C)N2CCc3c(cc(CCN(C)CCO)cc3-c3ccc(F)nc3C)C2=O)ncc1C#N [Example 252]	10 to 1000 nM	10 to 1000 nM	10 to 1000 nM
CCOc1cc([C@H](C)N2CCc3c(cc(CCN(C)C4COC4)cc3-c3ccc(F)nc3C)C2=O)ncc1C#N [Example 253]	10 to 1000 nM	10 to 1000 nM	10 to 1000 nM
CCOc1cc([C@H](C)N2CCc3c(cc(CCN(C)CCF)cc3-c3cc(C)ncc3C)C2=O)ncc1C#N [Example 254]	10 to 1000 nM	10 to 1000 nM	10 to 1000 nM
COc1cc(CN2CCc3c(cc(CCN(C)C)cc3-c3cn(C)nc3C(F)(F)F)C2=O)ccc1F [Example 255]	10 to 1000 nM	10 to 1000 nM	1000 to 25000 nM
CCOc1cc([C@H](C)N2CCc3c(cc(CCN(C)CC)cc3C(O)C(C)C)C2=O)ncc1C#N (stereo partly drawn) [Example 256, 4-ethoxy-6-((1S)-1-(7-(2-(ethyl(methyl)amino)ethyl)-5-(1-hydroxy-2-methylpropyl)-1-oxo-3,4-dihydroisoquinolin-2(1H)-yl)ethyl)nicotinonitrile]	10 to 1000 nM	10 to 1000 nM	10 to 1000 nM
CCOc1cc(C(C)N2CCc3c(cc(CCN(C)CC)cc3C(O)C(C)C(F)(F)F)C2=O)ncc1C#N (stereo not drawn) [Example 258, 4-ethoxy-6-(1-(7-(2-(ethyl(methyl)amino)ethyl)-1-oxo-5-(3,3,3-trifluoro-1-hydroxy-2-methylpropyl)-3,4-dihydroisoquinolin-2(1H)-yl)ethyl)nicotinonitrile]	< 10 nM	10 to 1000 nM	10 to 1000 nM
CCOc1cc(C(C)N2CCc3c(cc(CCN(C)CC)cc3C(O)C(F)(F)F)C2=O)ncc1C#N (stereo not drawn) [Example 259, 4-ethoxy-6-(1-(7-(2-(ethyl(methyl)amino)ethyl)-1-oxo-5-(2,2,2-trifluoro-1-hydroxyethyl)-3,4-dihydroisoquinolin-2(1H)-yl)ethyl)nicotinonitrile]	< 10 nM	10 to 1000 nM	10 to 1000 nM
CCOc1cc(CN2CCc3c(cc(Cn4ccnc4C)cc3-c3cn(C)nc3C)C2=O)ncc1C#N [Example 263, 6-((5-(1,3-Dimethyl-1H-pyrazol-4-yl)-7-((2-methyl-1H-imidazol-1-yl)methyl)-1-oxo-3,4-dihydroisoquinolin-2(1H)-yl)methyl)-4-ethoxynicotinonitrile]	10 to 1000 nM	10 to 1000 nM	10 to 1000 nM
CCOc1cc([C@H](C)N2CCc3c(cc(Cn4ccnc4C)cc3-c3c[nH]c(=O)cc3C(F)(F)F)C2=O)ncc1C#N [Example 269, (S)-4-Ethoxy-6-(1-(7-((2-methyl-1H-imidazol-1-yl)methyl)-1-oxo-5-(6-oxo-4-(trifluoromethyl)-1,6-dihydropyridin-3-yl)-3,4-dihydroisoquinolin-2(1H)-yl)ethyl)nicotinonitrile]	< 10 nM	10 to 1000 nM	10 to 1000 nM
CCOc1cc([C@H](C)N2CCc3c(cc(Cn4ccnc4C)cc3-c3cn(CCO)nc3C)C2=O)ncc1C#N [Example 271]	< 10 nM	10 to 1000 nM	10 to 1000 nM
CCOc1cc([C@H](C)N2CCc3c(cc(Cn4cc(C)nc4C)cc3-c3cn(CCO)nc3C)C2=O)ncc1C#N [Example 272]	< 10 nM	10 to 1000 nM	10 to 1000 nM
CCOc1cc([C@H](C)N2CCc3c(cc(Cn4cc(C)nc4C)cc3-c3cn(C)nc3C)C2=O)ncc1C#N [Example 273]	< 10 nM	10 to 1000 nM	10 to 1000 nM
CCOc1cc([C@H](C)N2CCc3c(cc(Cn4cc(C)nc4C)cc3-c3cn(C)c(=O)cc3C)C2=O)ncc1C#N [Example 274]	< 10 nM	10 to 1000 nM	10 to 1000 nM
CCOc1cc([C@H](C)N2CCc3c(cc(Cn4ccnc4C)cc3-c3cn(C)c(=O)cc3C)C2=O)ncc1C#N [Example 275]	< 10 nM	10 to 1000 nM	10 to 1000 nM
CCOc1cc([C@H](C)N2CCc3c(cc(Cn4cnc(C)c4)cc3-c3cn(C)nc3C)C2=O)ncc1C#N [Example 276]	< 10 nM	10 to 1000 nM	10 to 1000 nM
CCOc1cc([C@H](C)N2CCc3c(cc(Cn4ccnc4C)cc3-c3nn(C)cc3C)C2=O)ncc1C#N [Example 277]	10 to 1000 nM	10 to 1000 nM	10 to 1000 nM
CCOc1cc([C@H](C)N2CCc3c(cc(Cn4ccnc4C)cc3-c3ccnn3C)C2=O)ncc1C#N [Example 279]	< 10 nM	10 to 1000 nM	10 to 1000 nM

Structure (SMILES)	IC50 (WDR5)	AC50 [1]	AC50 (MV4-11 cells)
CCOc1cc([C@H](C)N2CCc3c(cc(Cn4ccnc4C)cc3-c3cc(C)nn3C)C2=O)ncc1C#N [Example 280]	< 10 nM	10 to 1000 nM	< 10 nM
CCOc1cc([C@H](C)N2CCc3c(cc(Cn4ccnc4C)cc3-c3cn(C)c(=O)cc3C)C2=O)ncc1F [Example 281]	< 10 nM	10 to 1000 nM	10 to 1000 nM
CCOc1cc([C@H](C)N2CCc3c(cc(Cn4ccnc4C)cc3-c3cc(C(F)F)cnc3C)C2=O)ncc1C#N [Example 282]	< 10 nM	10 to 1000 nM	10 to 1000 nM
CCOc1cc([C@H](C)N2CCc3c(cc(Cn4ccnc4C)cc3-c3cn(C)c(=O)c(F)c3C)C2=O)ncc1F [Example 283]	< 10 nM	10 to 1000 nM	10 to 1000 nM
CCOc1cc([C@H](C)N2CCc3c(cc(Cn4ccnc4C)cc3-c3cn(S(C)(=O)=O)nc3C)C2=O)ncc1C#N [Example 284]	< 10 nM	10 to 1000 nM	10 to 1000 nM
CCOc1cc([C@H](C)N2CCc3c(cc(Cn4ccnc4C)cc3-c3cn(C)c(=O)cc3C(F)F)C2=O)ncc1C#N [Example 285]	< 10 nM	10 to 1000 nM	< 10 nM
CCOc1cc([C@H](C)N2CCc3c(cc(Cn4ccnc4C)cc3-c3cn(C(F)F)nc3C)C2=O)ncc1C#N [Example 286]	< 10 nM	10 to 1000 nM	< 10 nM
CCOc1cc([C@H](C)N2CCc3c(cc(Cn4ccnc4C)cc3-c3cn(C)c(=O)c(F)c3C)C2=O)ncc1C#N [Example 287]	< 10 nM	10 to 1000 nM	10 to 1000 nM
CCOc1cc([C@H](C)N2CCc3c(cc(Cn4ccnc4C)cc3-c3cn(C)c(=O)cc3C(F)(F)F)C2=O)ncc1C#N [Example 288]	< 10 nM	10 to 1000 nM	< 10 nM
CCOc1cc([C@H](C)N2CCc3c(cc(Cn4cncc4C)cc3-c3cn(C)nc3C)C2=O)ncc1C#N [Example 289]	< 10 nM	10 to 1000 nM	1000 to 25000 nM
CCOc1cc([C@H](C)N2CCc3c(cc(Cn4ccnc4C)cc3-c3nn(C)nc3C)C2=O)ncc1C#N [Example 290]	< 10 nM	10 to 1000 nM	10 to 1000 nM
CCOc1cc([C@H](C)N2CCc3c(cc(Cn4ccnc4C)cc3-c3nn(C)c(=O)cc3C(F)(F)F)C2=O)ncc1C#N [Example 291]	10 to 1000 nM	10 to 1000 nM	10 to 1000 nM
CCOc1cc([C@H](C)N2CCc3c(cc(Cn4ccnc4C)cc3-c3cn(C)c(=O)cc3Cl)C2=O)ncc1C#N [Example 292]	10 to 1000 nM	10 to 1000 nM	10 to 1000 nM
CCOc1cc([C@H](C)N2CCc3c(cc(Cn4ccnc4C)cc3-c3nc(C(F)F)nn3C)C2=O)ncc1C#N [Example 293]	10 to 1000 nM	10 to 1000 nM	10 to 1000 nM
CCOc1cc([C@H](C)N2CCc3c(cc(Cn4ccnc4C)cc3-n3nc(C)nc3C(F)F)C2=O)ncc1C#N [Example 294]	10 to 1000 nM	10 to 1000 nM	10 to 1000 nM
CCOc1cc([C@H](C)N2CCc3c(CN(C)C)cc(Cn4ccnc4C)cc3C2=O)ncc1C#N [Example 295]	10 to 1000 nM	10 to 1000 nM	1000 to 25000 nM
COc1cc([C@H](C)N2CCc3c(cc(Cn4ccnc4C)cc3-c3nn(C)c(=O)cc3C(F)(F)F)C2=O)ncc1C#N [Example 296]	10 to 1000 nM	10 to 1000 nM	10 to 1000 nM
CCOc1cc(CN2CCc3c(cc(Cn4ccnc4C)cc3-c3cn(C)c(=O)cc3C(F)(F)F)C2=O)ncc1C#N [Example 297]	< 10 nM	10 to 1000 nM	< 10 nM
CCOc1cc(CN2CCc3c(cc(Cn4ccnc4C)cc3-n3nc(C)nc3C(F)F)C2=O)ncc1C#N [Example 298]	< 10 nM	10 to 1000 nM	10 to 1000 nM
CCOc1cc(CN2CCc3c(cc(Cn4ccnc4C)cc3-c3cn(C)c(=O)cc3C(F)F)C2=O)ncc1C#N [Example 299]	< 10 nM	10 to 1000 nM	10 to 1000 nM
